From article PMC4022547 (Molecular Brain, 2014)

Tests used:
[1] = system: hα6(D199Y) + WT hβ2 + hβ3^V9’S nAChR; conditions: 100 μM nicotine; higher, p < 0.05
Procedure: (§1) We planned to introduce identical amounts of cRNA, presumably producing equal amounts of each subunit protein, into oocytes largely due to lack of information about the levels of mRNA for each subunits that compose α6*-nAChRs in neurons or other cells. Concentrations of cRNAs for each nAChR α and β subunits (WT, mutant or variant) were adjusted to 500 ng μL^−1. We provisionally assumed that hα6 or its variants in association with hβ2 or hβ4 subunits would form complexes having 2:3 and/or 3:2 ratios of the indicated subunits and that oocytes also injected with WT or mutant form of β3 subunits (i.e., β3^V9’S) would express nAChR with 2:2:1 ratios of α:β:(β3 or β3^V9’S) subunits. For expression of binary nAChRs (i.e., two subunit containing nAChRs; α + β but not β3) cRNA mixtures were prepared by mixing 1 μL of cRNA for each subunit and an additional μL of RNAse free water (i.e., total volume 3 μL). Similarly for expression of ternary nAChRs [i.e., three subunit containing nAChRs; (α + β) + (β3 or β3^V9’S)] cRNA mixtures were prepared by mixing 1 μL of cRNA for each subunit. Several preparations of each mixture were prepared and stored at −80°C until further use. Injection of 138 nL of cRNA, out of 3 μL cRNA mixtures, into each oocyte would deliver ~23 ng of cRNA for each subunit whether binary or ternary nAChRs are expressed.
(§2) Two to 5 days after injection, oocytes were placed in a small-volume chamber and continuously perfused with OR2. The chamber was grounded through an agarose bridge. The oocytes were voltage-clamped at −70 mV (unless otherwise noted) to measure agonist or antagonist induced currents using Axoclamp 900A and pClamp 10.2 software (Molecular Devices, Sunnyvale, CA). The current signal was low-pass filtered at 10 Hz with the built-in low-pass Bessel filter in the Axoclamp 900A and digitized at 20 Hz with Axon Digidata1440A and pClamp10. […] Drugs (agonists and antagonists) were prepared daily in OR2. Drug was applied using a Valvelink 8.2 perfusion system (Automate scientific, Berkeley, CA). […] Then for the purpose of comparison electrophysiological recordings were performed in a given day in a given batch of oocytes following the same order of injections. […] All hβ4*-nAChR recordings were done in similar conditions to facilitate comparisons between hα6hβ4- and hα6hβ4hβ3-nAChRs. All electrophysiological measurements were conducted or checked in at least two batches of oocytes.
(§3) Raw data was collected and processed in part using pClamp 10.2 (Molecular Devices, Sunnyvale, CA), Origin 7.5 (OriginLab Corporation, Northampton, MA) and a spreadsheet (Excel; Microsoft, Bellevue, WA). Peak current amplitudes (Imax) are reported as mean ± SEM (for results from at least three oocytes, i.e., n = 3).

[2] = biological target: hα6(N203T) + codon optimized hβ2 + hβ3^V9’S nAChR (Homo sapiens, UniProt P17787+Q15825, N203T); conditions: 100 μM nicotine; oocytes clamped at −70 mV
hα6(N203T) + codon optimized hβ2 + hβ3^V9’S nAChR, sequence (Q15825 26-494 N203T): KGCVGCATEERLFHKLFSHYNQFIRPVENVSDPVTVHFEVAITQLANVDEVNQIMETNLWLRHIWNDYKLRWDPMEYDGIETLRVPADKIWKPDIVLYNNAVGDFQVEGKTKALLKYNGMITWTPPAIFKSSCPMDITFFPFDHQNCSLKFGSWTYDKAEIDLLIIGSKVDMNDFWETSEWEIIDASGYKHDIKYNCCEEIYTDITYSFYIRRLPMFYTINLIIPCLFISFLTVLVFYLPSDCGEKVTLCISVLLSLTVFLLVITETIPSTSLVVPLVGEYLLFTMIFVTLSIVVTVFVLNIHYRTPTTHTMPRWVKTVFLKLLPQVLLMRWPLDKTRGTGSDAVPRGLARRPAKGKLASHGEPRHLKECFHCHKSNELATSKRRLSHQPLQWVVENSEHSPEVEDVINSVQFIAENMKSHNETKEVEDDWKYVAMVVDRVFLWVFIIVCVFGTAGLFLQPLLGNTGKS
hα6(N203T) + codon optimized hβ2 + hβ3^V9’S nAChR, sequence (P17787 26-502): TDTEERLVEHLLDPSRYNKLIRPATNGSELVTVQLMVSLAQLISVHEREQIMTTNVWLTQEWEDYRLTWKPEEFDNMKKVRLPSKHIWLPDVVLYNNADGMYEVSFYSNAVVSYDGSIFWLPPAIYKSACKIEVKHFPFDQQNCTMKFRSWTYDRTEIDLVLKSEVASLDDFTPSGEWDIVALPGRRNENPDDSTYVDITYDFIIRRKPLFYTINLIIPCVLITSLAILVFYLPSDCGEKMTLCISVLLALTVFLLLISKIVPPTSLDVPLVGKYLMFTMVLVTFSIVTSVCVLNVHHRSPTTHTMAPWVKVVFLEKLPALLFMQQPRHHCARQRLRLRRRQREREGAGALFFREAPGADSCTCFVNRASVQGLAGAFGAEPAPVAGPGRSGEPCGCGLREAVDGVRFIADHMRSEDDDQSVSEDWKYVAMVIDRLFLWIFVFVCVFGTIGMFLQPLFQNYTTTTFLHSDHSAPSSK
hα6(N203T) + codon optimized hβ2 + hβ3^V9’S nAChR, sequence (Q05901 25-458 V273S partner limits assumed): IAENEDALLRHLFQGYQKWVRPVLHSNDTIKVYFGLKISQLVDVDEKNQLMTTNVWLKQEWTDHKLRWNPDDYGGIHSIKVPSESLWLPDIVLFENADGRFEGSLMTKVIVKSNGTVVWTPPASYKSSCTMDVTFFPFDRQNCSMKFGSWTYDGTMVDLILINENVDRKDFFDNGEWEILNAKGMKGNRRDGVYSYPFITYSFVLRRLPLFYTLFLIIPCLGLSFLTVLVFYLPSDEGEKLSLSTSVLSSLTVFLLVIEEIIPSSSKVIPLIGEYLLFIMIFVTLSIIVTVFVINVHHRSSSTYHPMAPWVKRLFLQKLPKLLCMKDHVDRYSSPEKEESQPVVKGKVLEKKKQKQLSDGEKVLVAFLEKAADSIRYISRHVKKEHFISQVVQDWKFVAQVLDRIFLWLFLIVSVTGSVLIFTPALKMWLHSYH
Procedure: as §1, §2, §3

hα6 + hβ4 + hβ3 nAChR = hα6 + hβ4 + hβ3 nAChR (Homo sapiens, UniProt P30926+Q15825); assay: Oocyte two-electrode voltage clamp; format: cell-based
hα6 + hβ4 + hβ3 nAChR, sequence (Q15825 26-494): as the sequence (Q15825 26-494 N203T) above, with T178N counted along it
hα6 + hβ4 + hβ3 nAChR, sequence (P30926 22-498): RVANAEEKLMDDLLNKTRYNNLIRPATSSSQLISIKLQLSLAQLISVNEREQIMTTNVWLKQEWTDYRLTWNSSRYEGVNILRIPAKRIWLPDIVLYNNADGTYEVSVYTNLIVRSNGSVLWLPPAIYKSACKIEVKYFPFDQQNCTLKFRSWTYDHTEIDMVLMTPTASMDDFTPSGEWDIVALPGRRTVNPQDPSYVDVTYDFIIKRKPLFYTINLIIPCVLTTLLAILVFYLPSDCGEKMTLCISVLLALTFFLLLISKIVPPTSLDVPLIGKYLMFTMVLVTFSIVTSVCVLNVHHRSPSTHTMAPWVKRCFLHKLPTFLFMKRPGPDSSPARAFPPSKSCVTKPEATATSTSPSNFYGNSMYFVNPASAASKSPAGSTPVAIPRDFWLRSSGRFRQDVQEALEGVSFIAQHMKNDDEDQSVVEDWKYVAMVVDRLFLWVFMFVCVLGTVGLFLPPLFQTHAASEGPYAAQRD
hα6 + hβ4 + hβ3 nAChR, sequence (Q05901 25-458 partner limits assumed): as the sequence (Q05901 25-458 V273S partner limits assumed) above, with S249V counted along it
Procedure: as §1, §2, §3

hα6 + hβ4 nAChR = hα6 + hβ4 nAChR (Homo sapiens, UniProt P30926+Q15825); assay: Oocyte two-electrode voltage clamp; format: cell-based
hα6 + hβ4 nAChR, sequence (Q15825 26-494): as the sequence (Q15825 26-494 N203T) above, with T178N counted along it
hα6 + hβ4 nAChR, sequence (P30926 22-498): as the sequence (P30926 22-498) above
Procedure: as §1, §2, §3

[3] = biological target: hα6(A184D) + hβ4 + hβ3 nAChR (Homo sapiens, UniProt P30926+Q15825, A184D); assay: Oocyte two-electrode voltage clamp; format: cell-based
hα6(A184D) + hβ4 + hβ3 nAChR, sequence (Q15825 26-494 A184D): as the sequence (Q15825 26-494 N203T) above, with A159D, T178N counted along it
hα6(A184D) + hβ4 + hβ3 nAChR, sequence (P30926 22-498): as the sequence (P30926 22-498) above
hα6(A184D) + hβ4 + hβ3 nAChR, sequence (Q05901 25-458 partner limits assumed): as the sequence (Q05901 25-458 V273S partner limits assumed) above, with S249V counted along it
Procedure: as §1, §2, §3

hα6(A184D) + hβ4 nAChR = hα6(A184D) + hβ4 nAChR (Homo sapiens, UniProt P30926+Q15825, A184D); assay: Oocyte two-electrode voltage clamp; format: cell-based
hα6(A184D) + hβ4 nAChR, sequence (Q15825 26-494 A184D): as the sequence (Q15825 26-494 N203T) above, with A159D, T178N counted along it
hα6(A184D) + hβ4 nAChR, sequence (P30926 22-498): as the sequence (P30926 22-498) above
Procedure: as §1, §2, §3

[4] = biological target: hα6(D199Y) + hβ4 + hβ3 nAChR (Homo sapiens, UniProt P30926+Q15825, D199Y); assay: Oocyte two-electrode voltage clamp; format: cell-based
hα6(D199Y) + hβ4 + hβ3 nAChR, sequence (Q15825 26-494 D199Y): as the sequence (Q15825 26-494 N203T) above, with D174Y, T178N counted along it
hα6(D199Y) + hβ4 + hβ3 nAChR, sequence (P30926 22-498): as the sequence (P30926 22-498) above
hα6(D199Y) + hβ4 + hβ3 nAChR, sequence (Q05901 25-458 partner limits assumed): as the sequence (Q05901 25-458 V273S partner limits assumed) above, with S249V counted along it
Procedure: as §1, §2, §3

hα6(D199Y) + hβ4 nAChR = hα6(D199Y) + hβ4 nAChR (Homo sapiens, UniProt P30926+Q15825, D199Y); assay: Oocyte two-electrode voltage clamp; format: cell-based
hα6(D199Y) + hβ4 nAChR, sequence (Q15825 26-494 D199Y): as the sequence (Q15825 26-494 N203T) above, with D174Y, T178N counted along it
hα6(D199Y) + hβ4 nAChR, sequence (P30926 22-498): as the sequence (P30926 22-498) above
Procedure: as §1, §2, §3

[5] = biological target: T1, hα6(R87C) + WT hβ2 + hβ3^V9’S nAChR (Homo sapiens, UniProt P17787+Q15825, R87C); assay: Oocyte two-electrode voltage clamp; format: cell-based
T1 construct: Full length capped mRNA (i.e., cRNA) was transcribed from linearized plasmids; expressed in transfected cells; host or cells: Xenopus laevis oocytes injected with cRNA
T1 sequence (Q15825 26-494 R87C): as the sequence (Q15825 26-494 N203T) above, with R62C, T178N counted along it
T1 sequence (P17787 26-502): as the sequence (P17787 26-502) above
T1 sequence (Q05901 25-458 V273S partner limits assumed): as the sequence (Q05901 25-458 V273S partner limits assumed) above
Procedure: as §1, §2, §3

[6] = biological target: T2, hα6(R96H) + hβ4 + hβ3 nAChR (Homo sapiens, UniProt P30926+Q15825, R96H); assay: Oocyte two-electrode voltage clamp; format: cell-based
T2 construct: Full length capped mRNA (i.e., cRNA) was transcribed from linearized plasmids; expressed in transfected cells; host or cells: Xenopus laevis oocytes injected with cRNA
T2 sequence (Q15825 26-494 R96H): as the sequence (Q15825 26-494 N203T) above, with R71H, T178N counted along it
T2 sequence (P30926 22-498, stated change not applied): as the sequence (P30926 22-498) above
T2 sequence (Q05901 25-458 partner limits assumed): as the sequence (Q05901 25-458 V273S partner limits assumed) above, with S249V counted along it
Procedure: as §1, §2, §3

hα6(R96H) + hβ4 nAChR = biological target: T3, hα6(R96H) + hβ4 nAChR (Homo sapiens, UniProt P30926+Q15825, R96H); assay: Oocyte two-electrode voltage clamp; format: cell-based
T3 construct: Full length capped mRNA (i.e., cRNA) was transcribed from linearized plasmids; expressed in transfected cells; host or cells: Xenopus laevis oocytes injected with cRNA
T3 sequence (Q15825 26-494 R96H): as the sequence (Q15825 26-494 N203T) above, with R71H, T178N counted along it
T3 sequence (P30926 22-498, stated change not applied): as the sequence (P30926 22-498) above
Procedure: as §1, §2, §3

[7] = biological target: hα6(S233C) + hβ4 + hβ3 nAChR (Homo sapiens, UniProt P30926+Q15825, S233C); assay: Oocyte two-electrode voltage clamp; format: cell-based
hα6(S233C) + hβ4 + hβ3 nAChR, sequence (Q15825 26-494 S233C): as the sequence (Q15825 26-494 N203T) above, with T178N, S208C counted along it
hα6(S233C) + hβ4 + hβ3 nAChR, sequence (P30926 22-498): as the sequence (P30926 22-498) above
hα6(S233C) + hβ4 + hβ3 nAChR, sequence (Q05901 25-458 partner limits assumed): as the sequence (Q05901 25-458 V273S partner limits assumed) above, with S249V counted along it
Procedure: as §1, §2, §3

hα6(S233C) + hβ4 nAChR = hα6(S233C) + hβ4 nAChR (Homo sapiens, UniProt P30926+Q15825, S233C); assay: Oocyte two-electrode voltage clamp; format: cell-based
hα6(S233C) + hβ4 nAChR, sequence (Q15825 26-494 S233C): as the sequence (Q15825 26-494 N203T) above, with T178N, S208C counted along it
hα6(S233C) + hβ4 nAChR, sequence (P30926 22-498): as the sequence (P30926 22-498) above
Procedure: as §1, §2, §3

[8] = 100 μM nicotine, oocytes clamped at −70 mV

Q: For `CN1CCC[C@H]1c1cccnc1` [nicotine, L-nicotine], which “peak current response relative to hα6hβ2hβ3^V9’S-nAChRs” value [1] is on record?
A: 2-5 fold

Q: What about the “peak current (Imax, mean ± SE)” value [2] of the same molecule?
A: 762 ± 253 nA

Q: What about the EC50 (hα6 + hβ4 + hβ3 nAChR) of the same molecule?
A: 12 µM

Q: What about the “Imax conc. (concentration where maximal peak current achieved)” value (hα6 + hβ4 + hβ3 nAChR) of the same molecule?
A: 100 µM

Q: What about the “nH ± SE (Hill coefficient)” value (hα6 + hβ4 + hβ3 nAChR) of the same molecule?
A: 1.5±0.45

Q: What about the “increase of peak current response relative to hα6hβ4-nAChRs” value (hα6 + hβ4 + hβ3 nAChR; 100 μM nicotine) of the same molecule?
A: ~ 12 fold

Q: And the “Mean (±SE) peak current response” value (hα6 + hβ4 + hβ3 nAChR; [8])?
A: 407 ± 34 nA

Q: What about the “Imax conc. (concentration where maximal peak current achieved)” value (hα6 + hβ4 nAChR) of the same molecule?
A: 100 µM

Q: And the “peak current (Imax, mean ± SE)” value (hα6 + hβ4 nAChR; [8])?
A: 35 ± 2 nA

Q: What about the EC50 [3] of the same molecule?
A: 4.9 µM

Q: And the “Imax conc. (concentration where maximal peak current achieved)” value [3]?
A: 100 µM

Q: What about the “nH ± SE (Hill coefficient)” value [3] of the same molecule?
A: 1.1±0.11

Q: And the “Mean (±SE) peak current response” value [3, 8]?
A: 554 ± 108 nA

Q: What about the EC50 (hα6(A184D) + hβ4 nAChR) of the same molecule?
A: 2.7 µM

Q: And the “Imax conc. (concentration where maximal peak current achieved)” value (hα6(A184D) + hβ4 nAChR)?
A: 100 µM

Q: What about the “nH ± SE (Hill coefficient)” value (hα6(A184D) + hβ4 nAChR) of the same molecule?
A: 1.1±0.15

Q: And the “peak current (Imax, mean ± SE)” value (hα6(A184D) + hβ4 nAChR; [8])?
A: 122 ± 12 nA

Q: And the EC50 [4]?
A: 11 µM

Q: What about the “Imax conc. (concentration where maximal peak current achieved)” value [4] of the same molecule?
A: 100 µM

Q: And the “nH ± SE (Hill coefficient)” value [4]?
A: 1.5±0.42

Q: What about the “Mean (±SE) peak current response” value [4, 8] of the same molecule?
A: 276 ± 47 nA

Q: And the EC50 (hα6(D199Y) + hβ4 nAChR)?
A: 4.4 µM

Q: And the “Imax conc. (concentration where maximal peak current achieved)” value (hα6(D199Y) + hβ4 nAChR)?
A: 100 µM

Q: What about the “nH ± SE (Hill coefficient)” value (hα6(D199Y) + hβ4 nAChR) of the same molecule?
A: 1.1±0.26

Q: And the “peak current (Imax, mean ± SE)” value (hα6(D199Y) + hβ4 nAChR; [8])?
A: 90 ± 11 nA

Q: What about the current response ([5]; ACh, nicotine or atropine, hβ2 type not specified) of the same molecule?
A: not obtained

Q: And the current response ([5]; nicotine)?
A: did not yield current responses

Q: And the EC50 [6]?
A: 8.2 µM

Q: And the “Imax conc. (concentration where maximal peak current achieved)” value [6]?
A: 100 µM

Q: And the “nH ± SE (Hill coefficient)” value [6]?
A: 1.2±0.13

Q: And the “Mean (±SE) peak current response” value [6, 8]?
A: 513 ± 42 nA

Q: What about the “Imax conc. (concentration where maximal peak current achieved)” value (hα6(R96H) + hβ4 nAChR) of the same molecule?
A: 100 µM

Q: What about the “peak current (Imax, mean ± SE)” value (hα6(R96H) + hβ4 nAChR; [8]) of the same molecule?
A: 73 ± 10 nA

Q: And the EC50 [7]?
A: 6.9 µM

Q: And the “Imax conc. (concentration where maximal peak current achieved)” value [7]?
A: 100 µM

Q: What about the “nH ± SE (Hill coefficient)” value [7] of the same molecule?
A: 1.4±0.12

Q: And the “Mean (±SE) peak current response” value [7, 8]?
A: 536 ± 66 nA

Q: And the EC50 (hα6(S233C) + hβ4 nAChR)?
A: 6.2 µM

Q: What about the “Imax conc. (concentration where maximal peak current achieved)” value (hα6(S233C) + hβ4 nAChR) of the same molecule?
A: 100 µM

Q: And the “nH ± SE (Hill coefficient)” value (hα6(S233C) + hβ4 nAChR)?
A: 1.4±0.13

Q: And the “peak current (Imax, mean ± SE)” value (hα6(S233C) + hβ4 nAChR; [8])?
A: 73 ± 20 nA
